pIC50: −log10 of the molar value. “Also recorded” adds a separate entry of the source. Structures can show the parent of a compound that is named as a salt.
Key:
A/M2 V27A mutant channel [1] = biological target: T1, A/M2 V27A mutant channel (Influenza A virus, UniProt P0DOF5, V27A); format: cell-based
A/M2 V27A mutant channel [2] = biological target: T1, A/M2 V27A mutant channel; settings: cited from earlier work
A/M2 S31N mutant channel = settings: cited from earlier work
[3] = system: A/WSN/33 virus (H1N1 subtype), N31S/V27A M2; format: cell-based, influenza A virus

| SMILES | Binding behaviour (A/M2 V27A mutant channel [1]) | Antiviral activity in 46-h PRA [3] | also measured |
| --- | --- | --- | --- |
| NC12CC3CC(CC(C3)C1)C2 [Amantadine, 1-aminoadamantane] |  |  | Inhibition by 100 μM for 2 min (%) (A/M2 V27A mutant channel [1]): 8.9 ± 1.0%; Activity against the V27A mutant (A/M2 V27A mutant channel [2]): totally inactive; pIC50 (A/M2 S31N mutant channel): 3.70 |
| C1CC(C23CC4CC(CC(C4)C2)C3)CCN1 [Compound 2, 4-(1-adamantyl)piperidine hydrochloride] | fast and weak | weak activity; also recorded: minimal antiviral activity |  |
| C1CC(C2C3CC4CC(C3)CC2C4)CCN1 (stereo not drawn) [Compound 3, 4-(Adamantan-2-yl)piperidine hydrochloride] |  | inactive |  |
| N=C(N)N1CCC(C23CC4CC(CC(C4)C2)C3)CC1 [Compound 7, N-amidyl-4-(1-adamantyl)piperidine hydrochloride] | fast and weak binder | inactive |  |
| C1CCC(C23CC4CC(CC(C4)C2)C3)NC1 (stereo not drawn) [Compound 8, 2-(1-adamantyl)piperidine hydrochloride] | no remarkable binding at all | inactive | Time after which inhibition is at steady-state (A/M2 V27A mutant channel [1]): ≤ 1 min |
| N=C(N)N1CCC(C=C2C3CC4CC(C3)CC2C4)CC1 [Compound 19, 4-[(adamantan-2-ylidene)methyl]piperidine-1-carboximidamide hydrochloride] |  | inactive |  |

Reference: publication PMC5972026 (Journal of medicinal chemistry, 2017)
